Measured values from BigSolDB 2.1.

CCc1ccc2c(c1)C(=O)c1ccccc1C2=O
solubility (mole fraction)
Settings | 304.15 K | 309.15 K | 314.15 K | 319.15 K | 324.15 K | 329.15 K | 334.15 K | 339.15 K | 344.15 K
in 2-methyl-cyclohexyl acetate | 0.0752 | 0.0907 | 0.104 | 0.127 | 0.145 | 0.171 | 0.199 | 0.232 | 0.268
in 2-phenylethanol | 0.107 | 0.127 | 0.15 | 0.176 | 0.21 | 0.248 | 0.288 | 0.334 | 0.385
in DMAc | 0.0943 | 0.113 | 0.131 | 0.156 | 0.184 | 0.214 | 0.248 | 0.287 | 0.336
in DMF | 0.107 | 0.126 | 0.153 | 0.176 | 0.21 | 0.245 | 0.283 | 0.335 | 0.388
in acetophenone | 0.138 | 0.163 | 0.185 | 0.21 | 0.238 | 0.274 | 0.315 | 0.356 | 0.397
in diglyme | 0.165 | 0.191 | 0.216 | 0.244 | 0.275 | 0.314 | 0.357 | 0.401 | 0.444
in diisobutyl methanol | 0.0441 | 0.0536 | 0.0651 | 0.0787 | 0.0973 | 0.116 | 0.139 | 0.163 | 0.199
in dioctyl adipate | 0.0657 | 0.0773 | 0.0899 | 0.107 | 0.129 | 0.152 | 0.18 | 0.209 | 0.242
in mesitylene | 0.139 | 0.159 | 0.184 | 0.209 | 0.234 | 0.264 | 0.296 | 0.329 | 0.371
in styrene | 0.0944 | 0.112 | 0.132 | 0.153 | 0.182 | 0.212 | 0.248 | 0.285 | 0.335
in tetrabutyl urea | 0.0531 | 0.0644 | 0.0785 | 0.0947 | 0.116 | 0.139 | 0.17 | 0.197 | 0.24
in trioctyl phosphate | 0.0569 | 0.0678 | 0.0792 | 0.0959 | 0.114 | 0.135 | 0.155 | 0.182 | 0.22
